Reference: ChEMBL document CHEMBL1201862, “PubChem BioAssay data set” (2004)
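Each compound was tested at five concentrations against cells in 96-well plates for 48 hours. GI50: concentration for 50% inhibition of growth.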 Calls of active or inactive are those of the source. No stated cut-off is given here; in the data, active = GI50 up to about 1.1 µM and inactive = higher.

Key:
Test in all cases: NCI-60 cell line screen, 48 h
786-0 = tested on: 786-0
IGROV-1 = tested on: IGROV-1
SK-MEL-5 = tested on: SK-MEL-5
HOP-92 = tested on: HOP-92
MDA-N = tested on: MDA-N
HCT-116 = tested on: HCT-116
BT-549 = tested on: BT-549
SK-OV-3 = tested on: SK-OV-3
OVCAR-8 = tested on: OVCAR-8
HOP-62 = tested on: HOP-62
NCI-H226 = tested on: NCI-H226
SR = tested on: SR
A498 = tested on: A498
Malme-3M = tested on: Malme-3M
RXF 393 = tested on: RXF 393
M14 = tested on: M14
A549 = tested on: A549
KM12 = tested on: KM12
NCI-H23 = tested on: NCI-H23

Measured: GI50

CN1C2CCC1CC(CCOC(c1ccc(F)cc1)c1ccc(F)cc1)C2 (configuration not stated)
inactive: 786-0 15.9 µM | IGROV-1 17.3 µM | SK-MEL-5 9.23 µM | HOP-92 15.7 µM | MDA-N 14.5 µM | HCT-116 12.7 µM | BT-549 16.9 µM | SK-OV-3 16.6 µM | OVCAR-8 17.3 µM | HOP-62 16 µM | NCI-H226 15.3 µM | SR 14.8 µM | A498 17.8 µM | Malme-3M 15.1 µM | RXF 393 10.4 µM | M14 16.4 µM | A549 19.4 µM | KM12 14.8 µM | NCI-H23 19.5 µM

c1ccc2c(c1)nc1n2CCSC1
inactive: 786-0 > 100 µM | IGROV-1 74.8 µM | SK-MEL-5 > 100 µM | HOP-92 > 100 µM | MDA-N > 100 µM | HCT-116 > 100 µM | BT-549 > 100 µM | SK-OV-3 > 100 µM | HOP-62 > 100 µM | SR > 100 µM | A498 > 100 µM | RXF 393 > 100 µM | M14 > 100 µM | A549 > 100 µM | KM12 > 100 µM | NCI-H23 > 100 µM

OCC(S)CS.[Bi] (configuration not stated)
inactive: 786-0 11.2 µM | IGROV-1 18.3 µM | SK-MEL-5 31.4 µM | HOP-92 23.7 µM | MDA-N 14.1 µM | HCT-116 17.7 µM | BT-549 9.79 µM | SK-OV-3 31.6 µM | OVCAR-8 19.5 µM | HOP-62 19.1 µM | NCI-H226 51.8 µM | SR 4.06 µM | A498 27 µM | Malme-3M 3.97 µM | RXF 393 10.7 µM | M14 8.36 µM | A549 28 µM | KM12 19.1 µM | NCI-H23 17.1 µM

Brc1c2c(c(Br)c3nsnc13)N=S=N2
inactive: 786-0 15.6 µM | IGROV-1 23.5 µM | SK-MEL-5 20 µM | HOP-92 17.4 µM | MDA-N 26.5 µM | HCT-116 27.4 µM | BT-549 12.3 µM | SK-OV-3 46.2 µM | OVCAR-8 25.6 µM | HOP-62 3.48 µM | NCI-H226 > 46.9 µM | SR 4.82 µM | A498 42.6 µM | Malme-3M 31.3 µM | RXF 393 15 µM | M14 22.5 µM | A549 78.5 µM | KM12 46.3 µM | NCI-H23 23.3 µM

CCOC(=O)N(NC(=O)NC(C)C)c1ccccc1
inactive: 786-0 > 100 µM | IGROV-1 > 100 µM | SK-MEL-5 > 100 µM | HOP-92 > 100 µM | MDA-N > 100 µM | HCT-116 > 100 µM | BT-549 > 100 µM | SK-OV-3 > 100 µM | OVCAR-8 > 100 µM | HOP-62 > 100 µM | NCI-H226 > 100 µM | SR > 100 µM | A498 > 100 µM | Malme-3M > 100 µM | RXF 393 > 100 µM | M14 > 100 µM | A549 > 100 µM | KM12 > 100 µM | NCI-H23 > 100 µM

O=C(Cc1ccc(Cl)c(Cl)c1)NCCCN1CCN(CCCN2CCCCC2)CC1
inactive: 786-0 16.4 µM | IGROV-1 27.1 µM | SK-MEL-5 10.4 µM | HOP-92 11.1 µM | MDA-N 2.45 µM | HCT-116 16.3 µM | BT-549 21.9 µM | SK-OV-3 19.2 µM | OVCAR-8 27.6 µM | HOP-62 17 µM | NCI-H226 21.7 µM | SR 11.7 µM | A498 16.4 µM | Malme-3M 17.6 µM | RXF 393 13.2 µM | M14 19.3 µM | A549 20.6 µM | KM12 15.8 µM | NCI-H23 19.8 µM

COc1ccc(C(=O)/C=C/c2ccc(OCC(=N)N)cc2)cc1
inactive: 786-0 16.3 µM | IGROV-1 18.2 µM | SK-MEL-5 17.3 µM | HOP-92 15.2 µM | MDA-N 16.7 µM | HCT-116 4.55 µM | BT-549 17.9 µM | SK-OV-3 12.9 µM | OVCAR-8 14.3 µM | HOP-62 15.8 µM | NCI-H226 18.8 µM | SR 5 µM | A498 13.6 µM | Malme-3M 17.9 µM | RXF 393 14.7 µM | M14 17 µM | A549 17.7 µM | KM12 12.6 µM | NCI-H23 18.7 µM

CCOC(=O)n1cncc1CC(NC(=O)Cc1c(C(=O)C=C(C)C)[nH]c2ccccc12)C(=O)OC (configuration not stated)
inactive: 786-0 21.5 µM | IGROV-1 14.9 µM | SK-MEL-5 18 µM | HOP-92 12 µM | MDA-N 23 µM | HCT-116 27.9 µM | BT-549 20 µM | SK-OV-3 17.5 µM | OVCAR-8 18.5 µM | NCI-H226 20.8 µM | SR 3.56 µM | A498 24.9 µM | Malme-3M 17.2 µM | RXF 393 14.1 µM | M14 15.6 µM | A549 19.2 µM | KM12 19.3 µM | NCI-H23 25.4 µM

C=CCCCCNC(=O)C[C@@H]1C2=C(CC[C@H]1O[Si](C)(C)C(C)(C)C)N1C(=O)CCC/C=C\C1C2 (some centres not stated)
inactive: 786-0 15.4 µM | IGROV-1 15.6 µM | SK-MEL-5 14.1 µM | HOP-92 11 µM | MDA-N 16.3 µM | HCT-116 13.3 µM | BT-549 16.6 µM | SK-OV-3 16.6 µM | OVCAR-8 14.9 µM | HOP-62 17.9 µM | NCI-H226 15.5 µM | SR 5.75 µM | A498 15.2 µM | Malme-3M 14.7 µM | RXF 393 10.8 µM | M14 14.3 µM | A549 13.1 µM | KM12 15 µM | NCI-H23 13.7 µM

Cc1ccc(-c2c(-c3ccccc3)[nH]c(C)c2C(=O)ONC(=O)c2ccccc2)cc1
inactive: 786-0 3.03 µM | IGROV-1 1.46 µM | SK-MEL-5 6.41 µM | HOP-92 1.67 µM | MDA-N 2.35 µM | HCT-116 2.48 µM | BT-549 3.52 µM | SK-OV-3 14.4 µM | OVCAR-8 4.62 µM | HOP-62 1.99 µM | NCI-H226 7.24 µM | SR 1.66 µM | A498 12.7 µM | Malme-3M 11.4 µM | RXF 393 1.87 µM | M14 5.19 µM | A549 2.52 µM | KM12 9.68 µM | NCI-H23 5.53 µM

CN(C)c1ccc(/C=C2\C[C@H]3[C@@H]4CCC5=CC(=O)CC[C@]5(C)[C@H]4CC[C@]3(C)C2=O)cc1
inactive: 786-0 48 µM | IGROV-1 63.1 µM | SK-MEL-5 12.4 µM | HOP-92 22.4 µM | MDA-N 19.5 µM | HCT-116 24.7 µM | BT-549 51.2 µM | SK-OV-3 > 100 µM | OVCAR-8 31.8 µM | HOP-62 > 100 µM | NCI-H226 62.4 µM | SR 17.7 µM | A498 37.7 µM | Malme-3M 25 µM | RXF 393 99.5 µM | M14 43.9 µM | A549 38 µM | KM12 72.1 µM | NCI-H23 52.7 µM

CC(=O)OCC1OC(N2C(S)=C(C#N)C(c3ccco3)C(C(C)=O)=C2c2ccccc2)C(OC(C)=O)C(OC(C)=O)C1OC(C)=O (configuration not stated)
inactive: 786-0 29.3 µM | IGROV-1 54.5 µM | SK-MEL-5 29 µM | HOP-92 32.9 µM | MDA-N 26.2 µM | HCT-116 51.9 µM | BT-549 > 100 µM | OVCAR-8 61 µM | HOP-62 16.9 µM | NCI-H226 > 100 µM | SR > 100 µM | A498 > 100 µM | Malme-3M 52.5 µM | RXF 393 > 100 µM | M14 94.6 µM | A549 49.4 µM | KM12 > 100 µM | NCI-H23 64.4 µM

COc1ccc([C@]23CCN4COC[C@@H]([C@H]42)C2(CC3)OCC(C)(C)CO2)cc1OC
inactive: 786-0 > 100 µM | IGROV-1 > 100 µM | SK-MEL-5 > 100 µM | HOP-92 31.3 µM | MDA-N > 100 µM | HCT-116 > 100 µM | BT-549 > 100 µM | SK-OV-3 > 100 µM | OVCAR-8 > 100 µM | HOP-62 > 100 µM | NCI-H226 > 100 µM | SR > 100 µM | A498 > 100 µM | Malme-3M > 100 µM | RXF 393 > 100 µM | M14 > 100 µM | A549 > 100 µM | KM12 > 100 µM | NCI-H23 > 100 µM

COc1ccc2cc(C(=O)NCCCNC(=O)c3ccc4cc(OC)ccc4c3)ccc2c1
inactive: 786-0 19.6 µM | IGROV-1 39.4 µM | SK-MEL-5 > 100 µM | HOP-92 14.7 µM | MDA-N > 100 µM | HCT-116 > 86.7 µM | BT-549 > 64.7 µM | SK-OV-3 31.5 µM | OVCAR-8 22.6 µM | HOP-62 14.7 µM | NCI-H226 49.4 µM | SR > 100 µM | A498 44.8 µM | Malme-3M > 100 µM | RXF 393 15.8 µM | M14 > 100 µM | A549 > 100 µM | KM12 > 100 µM | NCI-H23 > 100 µM

O=C1N=C2SC(=S)N=C(S)N2NC12c1ccccc1-c1ccccc12
inactive: 786-0 > 10 µM | IGROV-1 > 10 µM | SK-MEL-5 8.49 µM | HOP-92 > 10 µM | MDA-N > 10 µM | BT-549 > 10 µM | SK-OV-3 > 10 µM | OVCAR-8 > 10 µM | HOP-62 > 10 µM | SR > 10 µM | A498 1.55 µM | Malme-3M > 10 µM | M14 > 10 µM | A549 > 10 µM | KM12 > 10 µM | NCI-H23 9.4 µM
